Like-named read-outs stand apart in the source and are kept apart here.
Molecular target: T1, AXL (Homo sapiens, UniProt P30530)
T1 sequence (P30530 26-894): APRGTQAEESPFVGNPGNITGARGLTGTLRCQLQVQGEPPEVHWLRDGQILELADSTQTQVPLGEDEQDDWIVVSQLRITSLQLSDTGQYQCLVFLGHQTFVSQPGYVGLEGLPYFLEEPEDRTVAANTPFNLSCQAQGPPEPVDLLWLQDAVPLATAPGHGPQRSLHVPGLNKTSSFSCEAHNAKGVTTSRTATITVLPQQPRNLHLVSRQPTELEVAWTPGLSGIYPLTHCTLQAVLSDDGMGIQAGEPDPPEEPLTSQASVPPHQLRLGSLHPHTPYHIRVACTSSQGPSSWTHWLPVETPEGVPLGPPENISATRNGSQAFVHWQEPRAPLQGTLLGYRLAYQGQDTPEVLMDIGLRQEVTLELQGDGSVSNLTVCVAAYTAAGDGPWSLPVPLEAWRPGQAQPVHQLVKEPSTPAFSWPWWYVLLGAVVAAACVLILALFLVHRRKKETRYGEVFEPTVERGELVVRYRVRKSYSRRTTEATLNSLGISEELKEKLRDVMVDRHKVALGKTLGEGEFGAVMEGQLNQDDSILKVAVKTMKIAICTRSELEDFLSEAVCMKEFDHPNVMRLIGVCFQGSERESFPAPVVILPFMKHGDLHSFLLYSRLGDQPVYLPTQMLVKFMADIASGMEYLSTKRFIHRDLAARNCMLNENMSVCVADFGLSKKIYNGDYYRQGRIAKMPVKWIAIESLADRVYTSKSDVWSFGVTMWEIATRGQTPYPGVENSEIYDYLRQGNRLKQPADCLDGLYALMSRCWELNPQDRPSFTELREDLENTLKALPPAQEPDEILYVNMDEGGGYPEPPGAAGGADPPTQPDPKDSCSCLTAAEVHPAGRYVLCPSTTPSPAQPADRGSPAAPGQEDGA
Experiment: AXL kinase activity inhibition assay (Mobility shift assay)
Assay type: biochemical
Experimental: Testing compound inhibitory activity against FLT3 and AXL kinases using Mobility shift assay. Compounds were dissolved in 100% DMSO to prepare 10 mM stock solutions. Prepare 1× Kinase Buffer. Test compounds were serially diluted in 5-fold gradients, and 250 nL of 100× final concentration compounds were transferred to destination plate 3573 using an Echo 550 liquid handler. A 2.5× final concentration kinase solution was prepared in 1× Kinase Buffer. Then, 10 µL of the 2.5× kinase solution was added to both compound wells and positive control wells, while 10 µL of 1× Kinase Buffer was added to negative control wells. The plate was centrifuged at 1000 rpm for 30 seconds, mixed by orbital shaking, and incubated at room temperature for 10 minutes. A 5/3× final concentration mixture of ATP and Kinase Substrate 25 was prepared in 1× Kinase Buffer. The reaction was initiated by adding 15 µL of the 5/3× ATP/substrate mixture. […] Conversion rates were measured using a Caliper EZ Reader. %Inhibition = (Conversion%_max - Conversion%_sample)/(Conversion%_max - Conversion%_min) × 100. Where: Conversion%_sample: Conversion rate reading of test samples; Conversion%_min: Mean value of negative control wells (representing conversion rate without enzyme activity); Conversion%_max: Mean value of positive control wells (representing conversion rate without compound inhibition). […]

SMILES | IC50 (Table 3, read-out: AXL (IC50)) | IC50
COc1cc2c(cc1Nc1ncc(Cl)c(Nc3ccccc3S(=O)(=O)C(C)C)n1)OC[C@@H]1CN(C3CCOCC3)CCN21 [Compound C1S] | < 30 nM | 
COc1cc2c(cc1Nc1ncc(Cl)c(Nc3ccccc3S(=O)(=O)C(C)C)n1)OC[C@@H]1CN(C3CCN(C)CC3)CCN21 [Compound C2S] |  | < 30 nM
